From US20220387615A1, “COMPOSITIONS COMPRISING ENZYME CLEAVABLE LINKER PLATFORMS AND CONJUGATES THEREOF” (Danmarks Tekniske Universitet, priority 2019, published 2022)

Assays:
[1] = test system: Amano Lipase from Pseudomonas fluorescens; test: Lipase test of linker X8: cleavage and model drug release; type: biochemical; details: for time to full conversion to X10 and X11: 1 mg/mL lipase, room temperature
Protocol: Compound X8 was exposed to lipase in phosphate buffered solutions at pH 6 and 7.4. […] The pH 6 and 7.4 tests were conducted to determine if any difference in the rate of intramolecular lactonisation would be observed. Initial tests involved incubation of the linker (1 mM in 2% DMSO/buffer) with 1 mg/mL lipase (>20 U/mL) at room temperature (FIG. 16). Caffeine was included as an internal standard. Aliquots were taken out at different time points and LC-MS and HPLC used for analysis.

[2] = test system: Helix pomatia Type H-1; test: Cleavage by Helix pomatia Type H-1; type: biochemical; details: phosphate buffer pH 5, 6 and 7.4; room temperature
Protocol: (§1) The above compound was dissolved in a minimum of DMSO and added to Helix pomatia Type H-1 in phosphate buffer solutions at pH 5, 6 and 7.4, respectively at room temperature. Aliquots were taken out at different time points and LC-MS and HPLC used for analysis. LCMS analysis required a small organic extraction of each aliquot in order to remove the protein prior to analysis. Analytical HPLC allowed direct injection and offers high sensitivity and reliability. Caffeine was included as an internal standard. The compound was almost fully hydrolysed at 5 min.

[3] = test system: amano lipase; test: Cleavage by Amano lipase; type: biochemical, Pseudomonas fluorescens; details: phosphate buffer pH 5, 6 and 7.4; room temperature
Protocol: as §1, with “amano lipase” for “Helix pomatia Type H-1”

[4] = test system: acid phosphatase; test: Cleavage by acid phosphatase; type: biochemical; details: phosphate buffer pH 5, 6 and 7.4; room temperature
Protocol: as §1, with “acid phosphatase” for “Helix pomatia Type H-1”, “1 hour.” for “5 min.”

## CCCCCCCC(=O)OCCN(CC(=O)OCC(=O)c1ccc(Br)cc1)C(=O)c1ccccc1 [Example X8, 2-(N-(2-(2-(4-bromophenyl)-2-oxoethoxy)-2-oxoethyl)benzamido)ethyl octanoate]
[1]; FIG. 17, conditions not given
  non-linear conversion to products, duration: 114 min
[1]; pH 6
  time to full conversion to X10 and X11: 60 min
[1]; pH 7.4, linker 1 mM in 2% DMSO/buffer
  time to full conversion to X10 and X11: < 15 min

## O=C(NCCNC(=O)c1ccccc1)OCc1ccc(OS(=O)(=O)O)cc1
[2]
  time at which the compound was almost fully hydrolysed: 5 min

## CCCCCCCC(=O)OCCNC(=O)c1ccccc1
[3]
  time at which the compound was almost fully hydrolysed: 5 min

## O=C(NCCOP(=O)(O)O)c1ccccc1
[4]
  time at which the compound was almost fully hydrolysed: 1 h
